# What was measured:
# Assay in all cases: radiometric filter-binding kinase assay
# AURKB (human) = AURKB (human) (UniProt Q96GD4)
# MAP2K2 (human) = MAP2K2 (human) (UniProt P36507)
# IKBKE (human) = IKBKE (human) (UniProt Q14164)
# YES1 (human) = YES1 (human) (UniProt P07947)
# CaMK1 (human) = CaMK1 (human) (UniProt Q14012)
# MKNK2 (human) = MKNK2 (human) (UniProt Q9HBH9)
# MAP3K7 TAB1 (human) = MAP3K7 TAB1 (human) (UniProt Q15750+O43318)
# MAPK12 (human) = MAPK12 (human) (UniProt P53778)
# MINK1 (human) = MINK1 (human) (UniProt Q8N4C8)
# CSK (human) = CSK (human) (UniProt P41240)
# IGF1R (human) = IGF1R (human) (UniProt P08069)
# MAPK9 (human) = MAPK9 (human) (UniProt P45984)
# BTK (human) = BTK (human) (UniProt Q06187)
# MAPKAPK2 (human) = MAPKAPK2 (human) (UniProt P49137)
# PAK4 (human) = PAK4 (human) (UniProt O96013)
# MAPK14 (human) = MAPK14 (human) (UniProt Q16539)
# MAPKAPK5 (human) = MAPKAPK5 (human) (UniProt Q8IW41)
# CAMKK2 (human) = CAMKK2 (human) (UniProt Q96RR4)
# EPHB3 (human) = EPHB3 (human) (UniProt P54753)
# DYRK1A (human) = DYRK1A (human) (UniProt Q13627)
# IKBKB (human) = IKBKB (human) (UniProt O14920)
# MELK (human) = MELK (human) (UniProt Q14680)
# MAPK15 (human) = MAPK15 (human) (UniProt Q8TD08)
# CSNK1D (human) = CSNK1D (human) (UniProt P48730)
# RIPK2 (human) = RIPK2 (human) (UniProt O43353)
# PAK7 (human) = PAK7 (human) (UniProt Q9P286)
# PRKACA (human) = PRKACA (human) (UniProt P17612)
# HIPK2 (human) = HIPK2 (human) (UniProt Q9H2X6)
# EPHA4 (human) = EPHA4 (human) (UniProt P54764)
# BRSK1 (human) = BRSK1 (human) (UniProt Q8TDC3)
# PIM1 (human) = PIM1 (human) (UniProt P11309)
# DYRK2 (human) = DYRK2 (human) (UniProt Q92630)
# MAPK8 (human) = MAPK8 (human) (UniProt P45983)
# MAP3K11 (human) = MAP3K11 (human) (UniProt Q16584)
# EPHB2 (human) = EPHB2 (human) (UniProt P29323)
# Chain of MAPK14 (human) (Q16539 whole entry, looked up): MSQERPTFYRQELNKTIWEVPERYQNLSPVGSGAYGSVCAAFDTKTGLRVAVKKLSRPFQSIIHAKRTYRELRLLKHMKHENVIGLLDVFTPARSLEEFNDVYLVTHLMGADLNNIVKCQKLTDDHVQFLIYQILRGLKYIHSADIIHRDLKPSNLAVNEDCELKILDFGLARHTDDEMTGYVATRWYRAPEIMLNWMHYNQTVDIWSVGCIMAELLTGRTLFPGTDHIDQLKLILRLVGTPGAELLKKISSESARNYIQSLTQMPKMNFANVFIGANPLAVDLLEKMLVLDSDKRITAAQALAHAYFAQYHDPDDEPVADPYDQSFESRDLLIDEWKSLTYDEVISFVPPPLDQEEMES
# Chain of MINK1 (human) (Q8N4C8 whole entry, looked up): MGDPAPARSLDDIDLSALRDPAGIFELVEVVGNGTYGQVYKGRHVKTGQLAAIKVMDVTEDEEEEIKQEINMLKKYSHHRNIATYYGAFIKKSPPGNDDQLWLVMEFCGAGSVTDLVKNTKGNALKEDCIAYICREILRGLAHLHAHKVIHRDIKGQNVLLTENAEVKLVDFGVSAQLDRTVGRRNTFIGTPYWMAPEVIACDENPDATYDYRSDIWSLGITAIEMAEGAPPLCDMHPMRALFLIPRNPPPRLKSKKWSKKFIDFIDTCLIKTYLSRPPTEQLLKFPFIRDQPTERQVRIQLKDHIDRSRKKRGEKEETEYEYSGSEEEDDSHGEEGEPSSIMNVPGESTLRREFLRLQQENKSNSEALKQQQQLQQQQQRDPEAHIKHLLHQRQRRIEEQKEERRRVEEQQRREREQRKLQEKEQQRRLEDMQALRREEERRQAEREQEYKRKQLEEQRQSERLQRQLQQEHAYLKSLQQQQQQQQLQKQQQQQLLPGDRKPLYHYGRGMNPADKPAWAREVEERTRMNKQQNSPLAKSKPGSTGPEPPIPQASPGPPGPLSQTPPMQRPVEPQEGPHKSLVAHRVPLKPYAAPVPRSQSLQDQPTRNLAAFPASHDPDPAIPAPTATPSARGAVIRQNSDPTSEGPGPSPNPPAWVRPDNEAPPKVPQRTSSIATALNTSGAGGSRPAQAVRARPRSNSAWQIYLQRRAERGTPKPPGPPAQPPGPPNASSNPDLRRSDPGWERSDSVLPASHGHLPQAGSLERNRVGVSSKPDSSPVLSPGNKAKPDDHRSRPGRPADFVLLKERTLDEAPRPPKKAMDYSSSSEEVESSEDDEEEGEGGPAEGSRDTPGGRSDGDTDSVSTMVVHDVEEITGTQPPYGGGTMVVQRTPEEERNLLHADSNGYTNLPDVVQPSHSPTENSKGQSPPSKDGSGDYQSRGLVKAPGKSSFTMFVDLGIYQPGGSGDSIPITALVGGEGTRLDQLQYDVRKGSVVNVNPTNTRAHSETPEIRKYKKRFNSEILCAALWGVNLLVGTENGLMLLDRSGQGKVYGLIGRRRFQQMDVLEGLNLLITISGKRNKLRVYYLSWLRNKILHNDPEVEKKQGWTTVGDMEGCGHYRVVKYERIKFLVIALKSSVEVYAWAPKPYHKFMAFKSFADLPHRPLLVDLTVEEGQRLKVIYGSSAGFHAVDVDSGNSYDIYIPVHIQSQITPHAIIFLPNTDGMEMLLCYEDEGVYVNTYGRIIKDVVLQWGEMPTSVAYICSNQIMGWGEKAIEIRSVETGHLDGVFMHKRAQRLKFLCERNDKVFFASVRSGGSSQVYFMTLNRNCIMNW
# Chain of HIPK2 (human) (Q9H2X6 whole entry, looked up): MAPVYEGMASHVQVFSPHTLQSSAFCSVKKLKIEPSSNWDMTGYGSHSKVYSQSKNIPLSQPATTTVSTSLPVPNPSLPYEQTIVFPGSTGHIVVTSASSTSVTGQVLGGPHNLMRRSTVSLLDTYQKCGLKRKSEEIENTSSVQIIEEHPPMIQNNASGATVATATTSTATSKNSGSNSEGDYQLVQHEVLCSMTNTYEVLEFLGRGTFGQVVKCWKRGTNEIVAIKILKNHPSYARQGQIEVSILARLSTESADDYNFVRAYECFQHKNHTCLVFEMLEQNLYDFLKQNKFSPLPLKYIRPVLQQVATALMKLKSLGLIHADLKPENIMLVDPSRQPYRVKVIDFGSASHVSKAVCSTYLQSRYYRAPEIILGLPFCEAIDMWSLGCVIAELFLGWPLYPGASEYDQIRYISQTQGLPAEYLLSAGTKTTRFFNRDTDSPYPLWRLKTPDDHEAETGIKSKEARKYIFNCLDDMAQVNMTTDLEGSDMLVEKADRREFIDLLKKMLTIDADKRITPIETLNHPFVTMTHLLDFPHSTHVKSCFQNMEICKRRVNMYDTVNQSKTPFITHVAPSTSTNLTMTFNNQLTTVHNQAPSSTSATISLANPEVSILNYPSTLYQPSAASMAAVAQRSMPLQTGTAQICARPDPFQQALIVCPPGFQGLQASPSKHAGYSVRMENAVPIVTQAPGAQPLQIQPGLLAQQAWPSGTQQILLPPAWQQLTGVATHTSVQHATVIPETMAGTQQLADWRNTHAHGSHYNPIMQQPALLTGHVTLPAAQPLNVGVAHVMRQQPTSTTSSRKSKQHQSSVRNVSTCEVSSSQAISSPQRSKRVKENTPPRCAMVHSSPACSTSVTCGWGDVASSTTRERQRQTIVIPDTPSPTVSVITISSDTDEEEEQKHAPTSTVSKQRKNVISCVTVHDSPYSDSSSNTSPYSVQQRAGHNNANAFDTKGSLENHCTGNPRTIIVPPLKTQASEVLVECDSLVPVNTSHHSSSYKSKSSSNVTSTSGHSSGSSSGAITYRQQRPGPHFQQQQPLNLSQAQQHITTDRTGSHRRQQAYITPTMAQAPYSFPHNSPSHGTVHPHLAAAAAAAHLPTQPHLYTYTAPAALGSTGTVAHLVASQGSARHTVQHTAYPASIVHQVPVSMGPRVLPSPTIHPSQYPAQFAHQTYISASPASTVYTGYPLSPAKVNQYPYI
# Chain of MAPKAPK2 (human) (P49137 whole entry, looked up): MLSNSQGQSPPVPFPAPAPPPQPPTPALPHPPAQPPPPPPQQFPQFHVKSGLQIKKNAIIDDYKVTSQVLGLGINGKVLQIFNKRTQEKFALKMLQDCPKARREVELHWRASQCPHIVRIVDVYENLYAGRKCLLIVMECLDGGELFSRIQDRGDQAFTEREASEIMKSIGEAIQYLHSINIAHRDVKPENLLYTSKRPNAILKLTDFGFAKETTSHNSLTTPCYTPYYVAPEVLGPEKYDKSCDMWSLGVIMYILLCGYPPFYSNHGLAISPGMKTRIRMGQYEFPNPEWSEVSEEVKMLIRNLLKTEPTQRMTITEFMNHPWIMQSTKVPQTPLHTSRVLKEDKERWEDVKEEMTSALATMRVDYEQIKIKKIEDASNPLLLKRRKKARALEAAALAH
# Chain of MAP3K7 TAB1 (human) (O43318 whole entry, looked up): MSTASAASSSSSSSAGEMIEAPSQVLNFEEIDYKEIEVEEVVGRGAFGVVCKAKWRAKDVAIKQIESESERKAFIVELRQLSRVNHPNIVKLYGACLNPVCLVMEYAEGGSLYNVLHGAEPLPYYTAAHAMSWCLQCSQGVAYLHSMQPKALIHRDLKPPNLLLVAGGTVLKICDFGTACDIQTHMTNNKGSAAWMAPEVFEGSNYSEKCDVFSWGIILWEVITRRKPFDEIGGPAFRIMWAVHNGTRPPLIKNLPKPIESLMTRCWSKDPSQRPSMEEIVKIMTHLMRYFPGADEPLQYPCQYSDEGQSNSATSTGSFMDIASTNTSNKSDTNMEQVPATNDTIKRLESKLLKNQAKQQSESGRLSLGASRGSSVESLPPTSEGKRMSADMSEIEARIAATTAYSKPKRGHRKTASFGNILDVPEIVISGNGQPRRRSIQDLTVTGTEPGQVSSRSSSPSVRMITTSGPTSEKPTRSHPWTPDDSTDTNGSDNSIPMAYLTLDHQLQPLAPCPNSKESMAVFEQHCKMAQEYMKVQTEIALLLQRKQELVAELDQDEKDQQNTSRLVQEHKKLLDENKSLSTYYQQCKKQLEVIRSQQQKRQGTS
# Chain of MAP3K7 TAB1 (human) (Q15750 whole entry, looked up): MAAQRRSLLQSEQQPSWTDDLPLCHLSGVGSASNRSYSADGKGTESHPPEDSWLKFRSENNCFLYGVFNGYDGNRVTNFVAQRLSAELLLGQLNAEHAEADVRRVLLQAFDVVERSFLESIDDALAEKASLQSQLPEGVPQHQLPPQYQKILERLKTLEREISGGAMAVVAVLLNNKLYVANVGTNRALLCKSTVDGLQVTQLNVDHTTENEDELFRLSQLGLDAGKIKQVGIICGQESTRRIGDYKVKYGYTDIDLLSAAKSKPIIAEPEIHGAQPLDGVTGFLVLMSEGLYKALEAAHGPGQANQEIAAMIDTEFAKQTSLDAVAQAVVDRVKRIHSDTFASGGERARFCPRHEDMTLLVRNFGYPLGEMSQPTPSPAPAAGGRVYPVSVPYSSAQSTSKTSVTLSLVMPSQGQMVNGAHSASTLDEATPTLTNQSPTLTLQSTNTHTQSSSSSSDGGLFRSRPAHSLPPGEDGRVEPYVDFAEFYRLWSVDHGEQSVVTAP
# Chain of MAPK15 (human) (Q8TD08 whole entry, looked up): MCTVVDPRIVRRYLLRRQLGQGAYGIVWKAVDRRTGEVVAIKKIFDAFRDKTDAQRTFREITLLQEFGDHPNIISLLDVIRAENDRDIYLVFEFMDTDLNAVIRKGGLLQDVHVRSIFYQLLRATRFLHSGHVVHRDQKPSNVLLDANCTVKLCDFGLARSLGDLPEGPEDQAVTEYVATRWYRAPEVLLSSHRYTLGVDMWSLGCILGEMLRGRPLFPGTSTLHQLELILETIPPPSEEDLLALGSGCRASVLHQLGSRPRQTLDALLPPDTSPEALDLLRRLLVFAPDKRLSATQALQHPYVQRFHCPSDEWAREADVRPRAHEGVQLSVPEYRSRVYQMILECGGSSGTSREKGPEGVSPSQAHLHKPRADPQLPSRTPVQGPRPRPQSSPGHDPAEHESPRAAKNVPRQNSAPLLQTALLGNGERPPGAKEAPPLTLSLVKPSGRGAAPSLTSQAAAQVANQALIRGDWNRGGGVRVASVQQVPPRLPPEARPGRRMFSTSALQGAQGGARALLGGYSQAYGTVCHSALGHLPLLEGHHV
compound,measurement,setting,value
O=c1c(O)c(-c2ccc(O)c(O)c2)oc2cc(O)c(O)c(O)c12,residual activity,AURKB (human); compound 1.0 µM,62%
same,residual activity,AURKB (human); compound 10.0 µM,8%
same,residual activity,MAP2K2 (human); compound 1.0 µM,94%
same,residual activity,IKBKE (human); compound 1.0 µM,69%
same,residual activity,IKBKE (human); compound 10.0 µM,21%
same,residual activity,YES1 (human); compound 1.0 µM,42%
same,residual activity,YES1 (human); compound 10.0 µM,9%
same,residual activity,CaMK1 (human); compound 1.0 µM,49%
same,residual activity,CaMK1 (human); compound 10.0 µM,19%
same,residual activity,MKNK2 (human); compound 1.0 µM,63%
same,residual activity,MKNK2 (human); compound 10.0 µM,26%
same,residual activity,MAP3K7 TAB1 (human); compound 1.0 µM,94%
same,residual activity,MAP3K7 TAB1 (human); compound 10.0 µM,5%
same,residual activity,MAPK12 (human); compound 1.0 µM,107%
same,residual activity,MAPK12 (human); compound 10.0 µM,88%
same,residual activity,MINK1 (human); compound 1.0 µM,56%
same,residual activity,MINK1 (human); compound 10.0 µM,10%
same,residual activity,CSK (human); compound 1.0 µM,125%
same,residual activity,CSK (human); compound 10.0 µM,74%
same,residual activity,IGF1R (human); compound 1.0 µM,96%
same,residual activity,IGF1R (human); compound 10.0 µM,43%
same,residual activity,MAPK9 (human); compound 1.0 µM,106%
same,residual activity,MAPK9 (human); compound 10.0 µM,100%
same,residual activity,BTK (human); compound 1.0 µM,61%
same,residual activity,BTK (human); compound 10.0 µM,32%
same,residual activity,MAPKAPK2 (human); compound 1.0 µM,94%
same,residual activity,MAPKAPK2 (human); compound 10.0 µM,53%
same,residual activity,PAK4 (human); compound 1.0 µM,50%
same,residual activity,PAK4 (human); compound 10.0 µM,38%
same,residual activity,MAPK14 (human); compound 1.0 µM,100%
same,residual activity,MAPK14 (human); compound 10.0 µM,119%
same,residual activity,MAPKAPK5 (human); compound 1.0 µM,87%
same,residual activity,MAPKAPK5 (human); compound 10.0 µM,1%
same,residual activity,CAMKK2 (human); compound 1.0 µM,72%
same,residual activity,CAMKK2 (human); compound 10.0 µM,61%
same,residual activity,EPHB3 (human); compound 1.0 µM,93%
same,residual activity,EPHB3 (human); compound 10.0 µM,61%
same,residual activity,DYRK1A (human); compound 1.0 µM,71%
same,residual activity,DYRK1A (human); compound 10.0 µM,3%
same,residual activity,IKBKB (human); compound 1.0 µM,100%
same,residual activity,IKBKB (human); compound 10.0 µM,16%
same,residual activity,MELK (human); compound 1.0 µM,53%
same,residual activity,MELK (human); compound 10.0 µM,9%
same,residual activity,MAPK15 (human); compound 1.0 µM,89%
same,residual activity,MAPK15 (human); compound 10.0 µM,65%
same,residual activity,CSNK1D (human); compound 1.0 µM,90%
same,residual activity,CSNK1D (human); compound 10.0 µM,29%
same,residual activity,RIPK2 (human); compound 1.0 µM,83%
same,residual activity,RIPK2 (human); compound 10.0 µM,7%
same,residual activity,PAK7 (human); compound 1.0 µM,67%
same,residual activity,PAK7 (human); compound 10.0 µM,55%
same,residual activity,PRKACA (human); compound 1.0 µM,109%
same,residual activity,PRKACA (human); compound 10.0 µM,79%
same,residual activity,HIPK2 (human); compound 1.0 µM,62%
same,residual activity,HIPK2 (human); compound 10.0 µM,19%
same,residual activity,EPHA4 (human); compound 1.0 µM,117%
same,residual activity,EPHA4 (human); compound 10.0 µM,74%
same,residual activity,BRSK1 (human); compound 1.0 µM,82%
same,residual activity,BRSK1 (human); compound 10.0 µM,7%
same,residual activity,PIM1 (human); compound 1.0 µM,37%
same,residual activity,PIM1 (human); compound 10.0 µM,7%
same,residual activity,DYRK2 (human); compound 1.0 µM,45%
same,residual activity,DYRK2 (human); compound 10.0 µM,1%
same,residual activity,MAPK8 (human); compound 1.0 µM,93%
same,residual activity,MAPK8 (human); compound 10.0 µM,93%
same,residual activity,MAP3K11 (human); compound 1.0 µM,62%
same,residual activity,MAP3K11 (human); compound 10.0 µM,16%
same,residual activity,EPHB2 (human); compound 1.0 µM,69%
Nc1cccc2c1CN(C1CCC(=O)NC1=O)C2=O (configuration not stated),residual activity,AURKB (human); compound 1.0 µM,83%
same,residual activity,AURKB (human); compound 10.0 µM,105%
same,residual activity,MAP2K2 (human); compound 1.0 µM,83%
same,residual activity,MAP2K2 (human); compound 10.0 µM,81%
same,residual activity,IKBKE (human); compound 1.0 µM,119%
same,residual activity,IKBKE (human); compound 10.0 µM,99%
same,residual activity,YES1 (human); compound 1.0 µM,102%
same,residual activity,YES1 (human); compound 10.0 µM,102%
same,residual activity,CaMK1 (human); compound 1.0 µM,103%
same,residual activity,CaMK1 (human); compound 10.0 µM,91%
same,residual activity,MKNK2 (human); compound 1.0 µM,80%
same,residual activity,MKNK2 (human); compound 10.0 µM,89%
same,residual activity,MAP3K7 TAB1 (human); compound 1.0 µM,99%
same,residual activity,MAP3K7 TAB1 (human); compound 10.0 µM,104%
same,residual activity,MAPK12 (human); compound 1.0 µM,109%
same,residual activity,MAPK12 (human); compound 10.0 µM,108%
same,residual activity,MINK1 (human); compound 1.0 µM,111%
same,residual activity,MINK1 (human); compound 10.0 µM,118%
same,residual activity,CSK (human); compound 1.0 µM,87%
same,residual activity,CSK (human); compound 10.0 µM,97%
same,residual activity,IGF1R (human); compound 1.0 µM,106%
same,residual activity,IGF1R (human); compound 10.0 µM,106%
same,residual activity,MAPK9 (human); compound 1.0 µM,100%
same,residual activity,MAPK9 (human); compound 10.0 µM,102%
same,residual activity,BTK (human); compound 1.0 µM,104%
same,residual activity,BTK (human); compound 10.0 µM,107%
same,residual activity,MAPKAPK2 (human); compound 1.0 µM,79%
same,residual activity,MAPKAPK2 (human); compound 10.0 µM,92%
same,residual activity,PAK4 (human); compound 1.0 µM,102%
same,residual activity,PAK4 (human); compound 10.0 µM,107%
same,residual activity,MAPK14 (human); compound 1.0 µM,105%
same,residual activity,MAPK14 (human); compound 10.0 µM,103%
same,residual activity,MAPKAPK5 (human); compound 1.0 µM,86%
same,residual activity,MAPKAPK5 (human); compound 10.0 µM,87%
same,residual activity,CAMKK2 (human); compound 1.0 µM,92%
same,residual activity,CAMKK2 (human); compound 10.0 µM,84%
same,residual activity,EPHB3 (human); compound 10.0 µM,102%
same,residual activity,DYRK1A (human); compound 1.0 µM,107%
same,residual activity,DYRK1A (human); compound 10.0 µM,99%
same,residual activity,IKBKB (human); compound 1.0 µM,100%
same,residual activity,IKBKB (human); compound 10.0 µM,106%
same,residual activity,MELK (human); compound 1.0 µM,94%
same,residual activity,MELK (human); compound 10.0 µM,90%
same,residual activity,MAPK15 (human); compound 1.0 µM,92%
same,residual activity,MAPK15 (human); compound 10.0 µM,98%
same,residual activity,CSNK1D (human); compound 1.0 µM,102%
same,residual activity,CSNK1D (human); compound 10.0 µM,97%
same,residual activity,RIPK2 (human); compound 1.0 µM,97%
same,residual activity,RIPK2 (human); compound 10.0 µM,106%
same,residual activity,PAK7 (human); compound 1.0 µM,86%
same,residual activity,PAK7 (human); compound 10.0 µM,77%
same,residual activity,PRKACA (human); compound 1.0 µM,101%
same,residual activity,PRKACA (human); compound 10.0 µM,84%
same,residual activity,HIPK2 (human); compound 1.0 µM,107%
same,residual activity,HIPK2 (human); compound 10.0 µM,103%
same,residual activity,EPHA4 (human); compound 1.0 µM,110%
same,residual activity,EPHA4 (human); compound 10.0 µM,124%
same,residual activity,BRSK1 (human); compound 1.0 µM,84%
same,residual activity,BRSK1 (human); compound 10.0 µM,94%
same,residual activity,PIM1 (human); compound 1.0 µM,93%
same,residual activity,PIM1 (human); compound 10.0 µM,87%
same,residual activity,DYRK2 (human); compound 1.0 µM,101%
same,residual activity,DYRK2 (human); compound 10.0 µM,103%
same,residual activity,MAPK8 (human); compound 1.0 µM,99%
same,residual activity,MAPK8 (human); compound 10.0 µM,106%
same,residual activity,MAP3K11 (human); compound 1.0 µM,92%
same,residual activity,MAP3K11 (human); compound 10.0 µM,98%
same,residual activity,EPHB2 (human); compound 1.0 µM,107%
same,residual activity,EPHB2 (human); compound 10.0 µM,113%

# Reference: the kinase profiling compilation of Christmann-Franck et al. (2016)
